Measurements published in the NIST ThermoML archive (doi:10.1016/j.jct.2016.03.025).
± gives the expanded uncertainty stated by the source.

What was measured:
[1] = 293.15 K; 101.33 kPa; Liquid; Vibrating tube method
[2] = refractive index (Na D-line) (dimensionless); conditions: 293.15 K; 101.33 kPa; Liquid; Standard Abbe refractometry
[3] = wn = mass fraction of the nth substance listed; conditions: 293.15 K; 101.3 kPa; Liquid; Vibrating tube method; w1 = 0.85
[4] = refractive index (Na D-line) (dimensionless); wn = mass fraction of the nth substance listed; conditions: 293.15 K; 101.3 kPa; Liquid; Standard Abbe refractometry; w1 = 0.85

mass density [1] | refractive index [2] | mass density [3] | refractive index [4] | Structure (SMILES)
970.1 ± 1.2 kg/m3 | 1.4425 ± 0.0011 |  |  | CC(=O)OC1CCCCC1 [cyclohexyl ethanoate]
873.3 ± 1.2 kg/m3 | 1.4096 ± 0.0011 |  |  | CCCCCCOC(C)=O [hexyl ethanoate]
 |  | 1682.8 ± 1 kg/m3 | 1.4345 ± 0.001 | O=P(O)(O)O [phosphoric acid] + O
998.3 ± 1 kg/m3 | 1.333 ± 0.001 |  |  | O [water]
